According to paper PMC2806030, “Inhibition of mammalian S6 kinase by resveratrol suppresses autophagy” (Aging (Albany NY), 2009):

Legend:
Assay in all cases: biochemical
Design in all cases: Upstate KinaseProfiler in vitro kinase activity assay, per cent of DMSO control
Conditions in all cases: read-out: Activity (% of Control)
NEK2(h) = NEK2(h) (Homo sapiens, UniProt P51955)
Outline: (§1)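 Profiling done with Upstate KinaseProfiler service across 100 kinases, resveratrol tested at 20 μM; activity expressed relative to control.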

FGFR1(h) = FGFR1(h) (Homo sapiens, UniProt P11362)
Outline: as §1

JNK3(h) = target: T1, JNK3(h) (Homo sapiens, UniProt P53779)
T1 construct: gene MAPK10
Outline: as §1

MEK1(h) = target: T2, MEK1(h) (Homo sapiens, UniProt Q02750)
T2 construct: gene MAP2K1
Outline: as §1

Flt3(h) = Flt3(h) (Homo sapiens, UniProt P36888)
Outline: as §1

Fms(h) = target: T3, Fms(h) (Homo sapiens, UniProt P07333)
T3 construct: gene CSF1R
Outline: as §1

PKA(h) = target: T4, PKA(h) (Homo sapiens, UniProt P17612)
T4 construct: gene PRKACA
Outline: as §1

CDK5/p35(h) = target: T5, CDK5/p35(h) (Homo sapiens, UniProt Q00535)
T5 construct: p35
Outline: as §1

PDK1(h) = target: T6, PDK1(h) (Homo sapiens, UniProt O15530)
T6 construct: gene PDPK1
Outline: as §1

T6 sequence (O15530 whole entry): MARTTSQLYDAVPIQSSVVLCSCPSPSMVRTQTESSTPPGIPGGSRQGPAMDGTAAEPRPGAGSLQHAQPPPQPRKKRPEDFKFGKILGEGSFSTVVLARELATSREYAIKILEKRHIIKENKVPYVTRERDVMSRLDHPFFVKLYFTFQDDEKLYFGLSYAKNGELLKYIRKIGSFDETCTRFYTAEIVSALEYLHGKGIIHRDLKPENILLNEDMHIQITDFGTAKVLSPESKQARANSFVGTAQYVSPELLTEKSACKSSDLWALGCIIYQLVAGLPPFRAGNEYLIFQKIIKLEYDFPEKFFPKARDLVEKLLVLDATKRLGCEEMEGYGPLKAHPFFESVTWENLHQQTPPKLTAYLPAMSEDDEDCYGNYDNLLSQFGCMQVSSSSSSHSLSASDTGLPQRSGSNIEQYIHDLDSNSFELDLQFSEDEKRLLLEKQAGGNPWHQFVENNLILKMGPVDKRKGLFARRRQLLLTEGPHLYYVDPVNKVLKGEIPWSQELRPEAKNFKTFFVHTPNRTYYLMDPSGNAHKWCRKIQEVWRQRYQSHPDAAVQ
T3 sequence (P07333 whole entry): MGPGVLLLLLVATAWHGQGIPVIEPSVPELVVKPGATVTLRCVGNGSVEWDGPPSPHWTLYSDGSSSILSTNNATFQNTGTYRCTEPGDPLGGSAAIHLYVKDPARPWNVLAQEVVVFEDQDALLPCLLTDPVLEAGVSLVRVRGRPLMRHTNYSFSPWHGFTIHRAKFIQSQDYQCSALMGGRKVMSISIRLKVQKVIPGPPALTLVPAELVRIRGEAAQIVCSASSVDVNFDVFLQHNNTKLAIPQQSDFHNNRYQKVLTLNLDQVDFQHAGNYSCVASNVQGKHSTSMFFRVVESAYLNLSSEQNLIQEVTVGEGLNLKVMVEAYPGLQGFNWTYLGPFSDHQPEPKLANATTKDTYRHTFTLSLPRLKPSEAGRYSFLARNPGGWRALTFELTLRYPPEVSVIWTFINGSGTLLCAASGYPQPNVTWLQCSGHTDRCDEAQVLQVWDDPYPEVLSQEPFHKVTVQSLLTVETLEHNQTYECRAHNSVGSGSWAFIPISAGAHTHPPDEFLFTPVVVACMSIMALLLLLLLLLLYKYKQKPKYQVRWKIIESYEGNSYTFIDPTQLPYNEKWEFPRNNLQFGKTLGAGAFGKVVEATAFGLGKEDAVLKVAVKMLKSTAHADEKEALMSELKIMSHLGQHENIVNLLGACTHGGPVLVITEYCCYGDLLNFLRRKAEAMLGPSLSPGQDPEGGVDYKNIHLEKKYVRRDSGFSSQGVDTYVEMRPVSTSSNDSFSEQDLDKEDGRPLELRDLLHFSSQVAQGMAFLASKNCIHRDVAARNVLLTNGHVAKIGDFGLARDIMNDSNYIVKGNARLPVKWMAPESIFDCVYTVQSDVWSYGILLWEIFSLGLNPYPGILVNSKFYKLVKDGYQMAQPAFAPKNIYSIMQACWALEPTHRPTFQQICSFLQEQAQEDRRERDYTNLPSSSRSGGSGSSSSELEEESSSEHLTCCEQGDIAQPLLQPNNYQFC
T5 sequence (Q00535 whole entry): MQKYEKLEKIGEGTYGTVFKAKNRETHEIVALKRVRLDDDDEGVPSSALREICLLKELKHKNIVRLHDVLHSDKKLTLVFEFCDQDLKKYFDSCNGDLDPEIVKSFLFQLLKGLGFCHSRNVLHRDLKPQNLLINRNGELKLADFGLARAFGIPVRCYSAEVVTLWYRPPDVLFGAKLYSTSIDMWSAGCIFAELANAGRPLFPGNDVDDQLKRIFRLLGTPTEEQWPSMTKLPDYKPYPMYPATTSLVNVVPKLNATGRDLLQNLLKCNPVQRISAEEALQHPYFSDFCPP
T5 sequence (Q15078 whole entry partner): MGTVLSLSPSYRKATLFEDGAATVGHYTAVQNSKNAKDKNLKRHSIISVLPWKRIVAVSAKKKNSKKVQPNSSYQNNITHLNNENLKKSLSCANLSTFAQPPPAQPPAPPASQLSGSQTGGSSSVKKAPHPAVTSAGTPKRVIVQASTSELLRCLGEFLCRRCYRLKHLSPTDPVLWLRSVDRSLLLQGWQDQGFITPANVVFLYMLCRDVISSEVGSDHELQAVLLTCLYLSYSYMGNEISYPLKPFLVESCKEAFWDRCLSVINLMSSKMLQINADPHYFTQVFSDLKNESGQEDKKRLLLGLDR
NEK2(h), sequence (P51955 whole entry): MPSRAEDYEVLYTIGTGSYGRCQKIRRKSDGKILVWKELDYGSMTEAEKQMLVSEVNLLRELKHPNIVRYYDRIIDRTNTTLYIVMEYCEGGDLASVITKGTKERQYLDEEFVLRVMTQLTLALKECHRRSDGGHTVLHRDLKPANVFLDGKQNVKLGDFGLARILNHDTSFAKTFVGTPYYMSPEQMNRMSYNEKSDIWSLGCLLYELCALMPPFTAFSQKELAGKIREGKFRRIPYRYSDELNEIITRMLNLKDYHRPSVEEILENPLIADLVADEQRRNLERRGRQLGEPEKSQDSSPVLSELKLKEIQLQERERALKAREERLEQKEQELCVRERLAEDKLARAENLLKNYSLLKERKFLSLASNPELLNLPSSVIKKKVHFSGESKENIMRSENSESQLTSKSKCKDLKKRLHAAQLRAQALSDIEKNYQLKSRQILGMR
T1 sequence (P53779 whole entry): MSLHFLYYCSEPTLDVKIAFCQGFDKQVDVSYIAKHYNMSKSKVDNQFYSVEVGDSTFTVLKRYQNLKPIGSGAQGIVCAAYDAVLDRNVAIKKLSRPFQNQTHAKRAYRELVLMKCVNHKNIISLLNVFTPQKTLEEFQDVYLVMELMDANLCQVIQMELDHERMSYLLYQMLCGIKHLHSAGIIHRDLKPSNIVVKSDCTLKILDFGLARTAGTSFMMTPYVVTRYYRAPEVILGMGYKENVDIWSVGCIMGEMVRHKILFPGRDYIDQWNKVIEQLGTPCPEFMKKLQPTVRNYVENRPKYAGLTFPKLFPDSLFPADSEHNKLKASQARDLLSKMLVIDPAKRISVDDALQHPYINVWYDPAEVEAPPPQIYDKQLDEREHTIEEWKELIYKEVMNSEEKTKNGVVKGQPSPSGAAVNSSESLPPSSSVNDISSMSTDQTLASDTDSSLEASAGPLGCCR
FGFR1(h), sequence (P11362 whole entry): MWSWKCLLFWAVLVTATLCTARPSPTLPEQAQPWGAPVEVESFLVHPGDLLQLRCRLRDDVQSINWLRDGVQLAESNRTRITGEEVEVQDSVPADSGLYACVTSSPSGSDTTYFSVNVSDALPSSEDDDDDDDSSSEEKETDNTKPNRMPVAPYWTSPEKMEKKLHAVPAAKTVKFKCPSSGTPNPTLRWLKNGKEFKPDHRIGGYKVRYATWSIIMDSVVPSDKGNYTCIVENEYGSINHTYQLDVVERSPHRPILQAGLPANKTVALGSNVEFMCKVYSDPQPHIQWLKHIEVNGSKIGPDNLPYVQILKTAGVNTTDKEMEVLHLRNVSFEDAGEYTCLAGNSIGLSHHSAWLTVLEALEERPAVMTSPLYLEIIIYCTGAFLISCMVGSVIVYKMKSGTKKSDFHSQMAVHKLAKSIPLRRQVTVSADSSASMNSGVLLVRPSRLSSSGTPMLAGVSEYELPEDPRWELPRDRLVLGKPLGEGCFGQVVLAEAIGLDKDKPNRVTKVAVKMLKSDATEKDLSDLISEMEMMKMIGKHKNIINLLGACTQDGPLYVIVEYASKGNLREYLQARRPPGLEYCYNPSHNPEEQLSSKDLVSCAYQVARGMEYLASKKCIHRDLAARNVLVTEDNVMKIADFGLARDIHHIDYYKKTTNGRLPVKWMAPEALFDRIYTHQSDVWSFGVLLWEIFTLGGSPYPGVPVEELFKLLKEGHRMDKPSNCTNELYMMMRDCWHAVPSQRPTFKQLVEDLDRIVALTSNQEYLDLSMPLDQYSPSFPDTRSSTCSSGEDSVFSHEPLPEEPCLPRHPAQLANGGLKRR
T2 sequence (Q02750 whole entry): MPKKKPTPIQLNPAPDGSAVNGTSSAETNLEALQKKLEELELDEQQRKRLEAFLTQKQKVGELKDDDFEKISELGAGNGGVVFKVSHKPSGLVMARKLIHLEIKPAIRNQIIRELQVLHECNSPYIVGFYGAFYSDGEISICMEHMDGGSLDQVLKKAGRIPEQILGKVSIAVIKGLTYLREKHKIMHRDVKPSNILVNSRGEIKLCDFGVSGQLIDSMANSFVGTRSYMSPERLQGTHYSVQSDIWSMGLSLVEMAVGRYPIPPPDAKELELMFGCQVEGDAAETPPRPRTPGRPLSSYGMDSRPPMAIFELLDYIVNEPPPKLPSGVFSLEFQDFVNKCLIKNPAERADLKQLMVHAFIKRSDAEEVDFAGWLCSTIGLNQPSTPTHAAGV

Q: For `Oc1ccc(/C=C/c2cc(O)cc(O)c2)cc1` [Res, resveratrol], which remaining activity at 20 µM (NEK2(h)) is on record?
A: The remaining activity at 20 µM was 102 ± 4%.

Q: What about the remaining activity at 20 µM (FGFR1(h)) of the same compound?
A: Its remaining activity at 20 µM is 58 ± 2%.

Q: What about the remaining activity at 20 µM (JNK3(h)) of the same compound?
A: The remaining activity at 20 µM was 98 ± 3%.

Q: And the remaining activity at 20 µM (MEK1(h))?
A: The remaining activity at 20 µM was 110 ± 5%.

Q: And the remaining activity at 20 µM (Flt3(h))?
A: Its remaining activity at 20 µM is 41 ± 1%.

Q: What about the remaining activity at 20 µM (Fms(h)) of the same compound?
A: The remaining activity at 20 µM was 61 ± 2%.

Q: And the remaining activity at 20 µM (PKA(h))?
A: The remaining activity at 20 µM was 100%.

Q: And the remaining activity at 20 µM (CDK5/p35(h))?
A: The remaining activity at 20 µM was 77 ± 2%.

Q: What about the remaining activity at 20 µM (PDK1(h)) of the same compound?
A: Its remaining activity at 20 µM is 108 ± 7%.
